The source of these data is patent US20060122148A1, “High affinity receptors for helicobacter pylori and use thereof” (priority 2002, published 2006).

Experiment [1] has as its system H. pylori strain CCUG 17874. The experiment is described as follows: Chromatogram binding assay of 35S-labeled H. pylori to gangliosides on thin-layer plates. More on the design: species or system Helicobacter pylori. The following applies: for Binding to ganglioside (in words): strain CCUG 17874, thin-layer plates, non-binding = no binding at 4 μg; for Amount at which binding was saturated: dilutions of gangliosides on thin-layer plates.

Experiment [2] concerns H. pylori strain J99. Described as above. The arrangement: species or system Helicobacter pylori.
Experiment [3] has as its system H. pylori strain CCGU 17874. Description: Overlay of TLC plates with radiolabeled bacteria (S-3-PG derivatives, glycolipids, neoglycolipids). The following applies: for Binding of H. pylori on TLC plates (in words): overlay with radiolabeled bacteria. Format: binding, Helicobacter pylori.
Experiment [4] relates to H. pylori strain 032. The experiment is described as follows: Overlay of TLC plates with radiolabeled bacteria (PGCs). Format: binding, Helicobacter pylori. The following applies: 032 strain from broth.

For “Galα3(Fucα2)Galβ4GlcNAcβ6(NeuAcα3Galβ4GlcNAcβ3)Galβ4GlcNAcβ3Galβ4Glcβ1Cer [No. 19]”, the “Binding to ganglioside (in words)” value in experiment [1] and in experiment [2] was “recognized” each time. In experiment [1] (thin-layer plates), the Detection level entry is reported as “approximately 100 pmole”.
Take “NeuAcα3Galβ3(Fucα4)GlcNAcβ3Galβ4Glcβ1Cer [No. 6]”: the “Binding to ganglioside (in words)” value was “did not recognize” in experiment [1] and “occasional binding” in experiment [2].
Take “NeuAcα3Galβ4(Fucα3)GlcNAcβ3Galβ4(Fucα3)GlcNAcβ3Galβ4Glcβ1Cer [No. 13]”: in experiment [1], the “Amount at which binding was saturated” value is given as “approximately 100 pmole” and the “Binding to ganglioside (in words)” value is given as “recognized”.
In the case of “NeuAcα3Galβ4GlcNAcβ3Galβ4(Fucα3)GlcNAcβ3Galβ4Glcβ1Cer [No. 12]”, the “Binding to ganglioside (in words)” value in experiment [1] is “recognized”.
Take “NeuAcα3Galβ4GlcNAcβ3Galβ4Glc-HDA (or -branched lipid)”: the “Binding of H. pylori on TLC plates (in words)” value (from here on “Binding of H. pylori”) in experiment [3] is “active”.
As for “NeuAcα3Galβ4GlcNAcβ3Galβ4GlcNAcβ3Galβ4GlcNAcβ3Galβ4Glcβ1Cer [No. 10]”, the “Binding to ganglioside (in words)” value in experiment [1] was “recognized”.
Turning to “NeuAcα3Galβ4GlcNAcβ3Galβ4GlcNAcβ3Galβ4Glcβ1Cer [No. 8]”, the “Binding of H. pylori” value in experiment [3] is reported as “stronger than binding to sialoneotetraosylceramide”. Further, in experiment [1], the “Amount at which binding was saturated” value is “approximately 100 pmole” and the “Binding to ganglioside (in words)” value was “recognized”. In experiment [1] (strain CCUG 17874, serial dilutions 1-100 pmole on thin-layer plates, densitometry), the Relative binding affinity entry is on record as “comparable to the binding of cholera toxin B-subunits to the GM1 ganglioside”. Besides, the “Binding to ganglioside (in words)” value in experiment [2] is “recognized”.
With “NeuAcα3Galβ4GlcNAcβ3Galβ4Glcβ1Cer [No. 2]”, the “Binding of H. pylori” value in experiment [4] is “do not bind”. Also, the Sensitivity of detection in experiment [3] (some H. pylori batches) was 0.3-0.4 pmol/mm^2.
Take “NeuAcα3Galβ4GlcNAcβ6(NeuAcα3Galβ4GlcNAcβ3)Galβ4GlcNAcβ3Galβ4Glcβ1Cer [No. 16]”: the “Binding to ganglioside (in words)” value in experiment [1] and in experiment [2] was “recognized” throughout.
NeuAcα3Galβ4Glcβ1Cer [No. 1]: in experiment [1], the “Binding to ganglioside (in words)” value was “inactive”.
